# Test results published in the Kinase Knowledgebase extract (Sharma et al. 2016).
# Target: MAPK14 (human) (UniProt Q16539)
# Experiment: Inhibition of MAPK14 Kinase Activity
# Sequence of MAPK14 (human) (Q16539 whole entry, looked up): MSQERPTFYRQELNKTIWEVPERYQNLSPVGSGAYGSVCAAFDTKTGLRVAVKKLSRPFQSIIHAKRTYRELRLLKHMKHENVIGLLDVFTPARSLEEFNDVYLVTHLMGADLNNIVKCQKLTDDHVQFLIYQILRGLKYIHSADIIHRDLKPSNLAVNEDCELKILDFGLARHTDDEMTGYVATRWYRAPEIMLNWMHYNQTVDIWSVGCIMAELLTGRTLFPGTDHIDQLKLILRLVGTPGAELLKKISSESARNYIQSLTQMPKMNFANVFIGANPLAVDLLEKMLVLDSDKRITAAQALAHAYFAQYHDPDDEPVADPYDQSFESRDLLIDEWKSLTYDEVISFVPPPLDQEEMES
row,IC50,Structure (SMILES)
1,100 µM,Cc1ccccc1-c1ncnc2c1[nH]c(=S)n2-c1c(C)cccc1C
2,0.5 µM,Cc1ccccc1-c1ncnc2c1[nH]c(=O)n2-c1c(F)cccc1F
3,0.9 µM,O=c1[nH]c2c(-c3ccccc3Cl)ncnc2n1-c1c(F)cccc1F
4,5.2 µM,COc1ccc(-n2c(=O)[nH]c3c(-c4ccccc4C)ncnc32)c(OC)c1
5,2.7 µM,O=c1[nH]c2c(-c3ccccc3Cl)ncnc2n1-c1ccc(F)cc1F
6,7.8 µM,Cc1cccc(C)c1-n1c(=O)[nH]c2c(-c3ccccc3Cl)ncnc21
7,18.1 µM,Cc1ccccc1-c1ncnc2c1[nH]c(=O)n2-c1c(C)cccc1C
8,1.6 µM,Cc1ccccc1-c1ncnc2c1[nH]c(=O)n2-c1ccc(F)cc1F
9,7.8 µM,O=c1[nH]c2c(-c3ccccc3F)ncnc2n1-c1c(F)cccc1F
10,17.5 µM,O=c1[nH]c2c(-c3ccccc3)ncnc2n1-c1c(F)cccc1F
